Results as given in PMC5508519 (Bioorganic & medicinal chemistry letters, 2017).

Columns and labels:
[1] = predicted hepatic clearance from human microsomal CLint; format: in vitro ADME; settings: based on CLint data from microsomes
hM4 = target: T1, hM4 (Homo sapiens, UniProt P08173); assay: calcium mobilization assay, hM4 CHO cells co-transfected with Gqi5, ACh EC80; format: cell-based; settings: SAR text on Table 2
T1 sequence (P08173 1-479): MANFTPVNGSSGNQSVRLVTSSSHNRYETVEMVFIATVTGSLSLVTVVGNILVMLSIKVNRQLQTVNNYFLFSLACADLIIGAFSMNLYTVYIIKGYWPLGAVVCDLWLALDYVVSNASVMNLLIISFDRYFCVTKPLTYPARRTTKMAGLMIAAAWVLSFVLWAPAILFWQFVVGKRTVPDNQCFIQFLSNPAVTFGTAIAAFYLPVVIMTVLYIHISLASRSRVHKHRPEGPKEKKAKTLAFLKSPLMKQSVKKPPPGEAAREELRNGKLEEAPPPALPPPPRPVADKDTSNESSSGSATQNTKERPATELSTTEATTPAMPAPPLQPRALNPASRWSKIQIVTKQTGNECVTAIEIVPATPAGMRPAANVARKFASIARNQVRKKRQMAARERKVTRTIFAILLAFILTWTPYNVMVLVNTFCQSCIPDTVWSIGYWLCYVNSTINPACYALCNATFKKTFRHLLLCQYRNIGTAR

M1 = target: T2, M1 (Homo sapiens, UniProt P11229); assay: calcium mobilization assay, hM1 CHO cells, approximate EC80 of ACh; format: cell-based; settings: n = 1
T2 sequence (P11229 1-460): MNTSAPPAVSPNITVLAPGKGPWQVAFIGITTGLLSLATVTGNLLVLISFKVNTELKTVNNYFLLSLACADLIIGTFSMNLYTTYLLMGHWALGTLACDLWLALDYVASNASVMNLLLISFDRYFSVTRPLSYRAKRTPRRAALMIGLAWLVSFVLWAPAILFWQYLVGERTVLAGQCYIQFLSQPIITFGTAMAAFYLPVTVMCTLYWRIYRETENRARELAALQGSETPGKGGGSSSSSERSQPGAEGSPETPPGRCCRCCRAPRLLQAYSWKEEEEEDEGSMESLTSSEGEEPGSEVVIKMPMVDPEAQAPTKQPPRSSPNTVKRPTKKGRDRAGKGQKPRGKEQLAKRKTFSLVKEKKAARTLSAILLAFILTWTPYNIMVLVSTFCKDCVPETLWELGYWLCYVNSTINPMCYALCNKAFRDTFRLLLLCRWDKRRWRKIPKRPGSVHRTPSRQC

M5 = target: T3, M5 (Homo sapiens, UniProt P08912); assay: calcium mobilization assay, hM5 CHO cells, approximate EC80 of ACh; format: cell-based; settings: n = 1
T3 sequence (P08912 1-532): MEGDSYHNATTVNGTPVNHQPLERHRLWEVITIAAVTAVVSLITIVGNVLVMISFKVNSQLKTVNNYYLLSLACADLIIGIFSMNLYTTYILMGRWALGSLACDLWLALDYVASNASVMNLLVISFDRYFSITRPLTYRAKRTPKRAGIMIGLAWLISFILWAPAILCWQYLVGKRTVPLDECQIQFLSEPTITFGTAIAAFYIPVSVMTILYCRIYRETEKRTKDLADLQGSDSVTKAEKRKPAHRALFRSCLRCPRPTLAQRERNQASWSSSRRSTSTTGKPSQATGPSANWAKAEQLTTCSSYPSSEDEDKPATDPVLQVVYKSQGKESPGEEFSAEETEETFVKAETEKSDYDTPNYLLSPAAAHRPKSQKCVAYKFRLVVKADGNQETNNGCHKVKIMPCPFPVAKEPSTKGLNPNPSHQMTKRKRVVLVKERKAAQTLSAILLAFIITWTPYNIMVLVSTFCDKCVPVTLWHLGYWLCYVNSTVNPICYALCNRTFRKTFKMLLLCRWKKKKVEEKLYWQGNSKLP

Row | Structure (SMILES) | predicted hepatic clearance CLhep (human) [1] | predicted hepatic clearance CLhep (rat) | M4 inhibitory activity (in words) (hM4) | further results
1 | CCc1ccc(Oc2cc(N3CCC(C(=O)N4CCc5ccccc5C4)CC3)ncn2)cc1 [Compound 5] | 20.3 mL/min/kg | 68.6 mL/min/kg | – | –
2 | COc1ccc2c(c1)CCN(C(=O)C1CCN(c3cc(Oc4ccc(F)cc4F)ncn3)CC1)C2 [Compound 17b] | – | – | retained M4 inhibitory activity | –
3 | COc1ccc2c(c1)CN(C(=O)C1CCN(c3cc(Oc4ccc(F)cc4F)ncn3)CC1)CC2 [Compound 17c] | – | – | retained M4 inhibitory activity | –
4 | O=C(C1CCN(c2cc(Oc3ccc(F)cc3F)ncn2)CC1)N1CCC2CCCCC2C1 (stereo not shown) [Compound 17d] | – | – | retained M4 inhibitory activity | –
5 | O=C(C1CCN(c2cc(Oc3ccc(F)cc3F)ncn2)CC1)N1Cc2ccccc2C1 [Compound 17e, (1-(6-(2,4-difluorophenoxy)pyrimidin-4-yl)piperidin-4-yl)(isoindolin-2-yl)methanone] | 5.56 mL/min/kg | 36.5 mL/min/kg | – | M1 % ACh Min (M1): 18.2 % ACh Min; M5 % ACh Min (M5): 42.6 % ACh Min; predicted CLhep with inclusion of binding terms in the well-stirred model (rat): 5.93 mL/min/kg
